The structures appear in SMILES notation. Bounds are passed on as bounds.

The subject of the first experiment is Alternaria solani. In words: Alternaria solani (early blight of tomato/potato) in vitro radial growth test on Potato Dextrose Agar. It counts as cell-based. The note with it: 168 h, radial growth after seven days at 25° C., 60% relative humidity, read-out: control compared to the untreated check.
For `O=C(Cc1ccccc1)Nc1ccc(Cc2noc(C(F)(F)F)n2)cc1` [Compound 6, 2-phenyl-N-(4-((5-(trifluoromethyl)-1,2,4-oxadiazol-3-yl)methyl)phenyl)acetamide], the inhibition of growth at 300 ppm was over 70%.

As for `O=C(NCc1ccc(F)cc1)c1ccc(Cc2noc(C(F)(F)F)n2)cc1` [Compound 12, N-(4-fluorobenzyl)-4-((5-(trifluoromethyl)-1,2,4-oxadiazol-3-yl)methyl)benzamide], the inhibition of growth at 300 ppm is over 70%.

With `Cc1ccc(C(C)NC(=O)c2ccc(Cc3noc(C(F)(F)F)n3)cc2)cc1` (stereo not drawn) [Compound 15, N-(1-(p-tolyl)ethyl)-4-((5-(trifluoromethyl)-1,2,4-oxadiazol-3-yl)methyl)benzamide], the inhibition of growth at 300 ppm was over 70%.

In the case of `O=C(NCc1cccnc1)c1ccc(Cc2noc(C(F)(F)F)n2)cc1` [Compound 16, N-(pyridin-3-ylmethyl)-4-((5-(trifluoromethyl)-1,2,4-oxadiazol-3-yl)methyl)benzamide], the inhibition of growth at 300 ppm is over 70%.

Turning to `O=C(Nc1cncc(Cl)c1)c1ccc(Cc2noc(C(F)(F)F)n2)cc1` [Compound 17, N-(5-chloropyridin-3-yl)-4-((5-(trifluoromethyl)-1,2,4-oxadiazol-3-yl)methyl)benzamide], the inhibition of growth at 300 ppm is over 70%.

For the compound `COc1ccccc1NC(=O)c1ccc(Cc2noc(C(F)(F)F)n2)cc1` [Compound 19, N-(2-methoxyphenyl)-4-((5-(trifluoromethyl)-1,2,4-oxadiazol-3-yl)methyl)benzamide], the inhibition of growth at 300 ppm is over 70%.

Regarding `O=C(NCCN1CCOCC1)c1ccc(Cc2noc(C(F)(F)F)n2)cc1` [Compound 21, N-(2-morpholinoethyl)-4-((5-(trifluoromethyl)-1,2,4-oxadiazol-3-yl)methyl)benzamide], the inhibition of growth at 300 ppm was over 70%.

Consider `O=C(Nc1cccc(Cl)c1)c1ccc(Cc2noc(C(F)(F)F)n2)cc1` [Compound 55, N-(3-chlorophenyl)-4-((5-(trifluoromethyl)-1,2,4-oxadiazol-3-yl)methyl)benzamide], for which the inhibition of growth at 300 ppm is over 70%.

Regarding `Cc1cccc(NC(=S)c2ccc(Cc3noc(C(F)(F)F)n3)cc2)c1` [Compound 64, N-(m-tolyl)-4-((5-(trifluoromethyl)-1,2,4-oxadiazol-3-yl)methyl)benzothioamide], the inhibition of growth at 300 ppm is over 70%.

The test system of a further experiment is Colletotrichum capsici. In words: Colletotrichum capsici (anthracnose) in vitro radial growth test on Potato Dextrose Agar. It counts as cell-based. The note with it: 300 ppm; radial growth after seven days at 25° C., 60% relative humidity.
As to `O=C(Cc1ccccc1)Nc1ccc(Cc2noc(C(F)(F)F)n2)cc1` [Compound 6, 2-phenyl-N-(4-((5-(trifluoromethyl)-1,2,4-oxadiazol-3-yl)methyl)phenyl)acetamide], the “control compared to the untreated check” value is given as over 70%.

A further experiment deals with Corynespora cassicola. In words: Corynespora cassicola (leaf spot of tomato) in vitro radial growth test on Potato Dextrose Agar. It counts as cell-based. The note with it: 300 ppm; radial growth after seven days at 25° C., 70% relative humidity.
Take `O=S(=O)(Nc1ccc(Cc2noc(C(F)(F)F)n2)cc1)c1ccccc1` [Compound 68, N-(4-((5-(trifluoromethyl)-1,2,4-oxadiazol-3-yl)methyl)phenyl)benzenesulfonamide]: the “control compared to the untreated check” value is over 70%.

In a further experiment the test system is Phakopsora pachyrhizi. In words: Phakopsora pachyrhizi test in soybean (greenhouse, preventive). It counts as in vivo. The note with it: 24 h, soybean plants sprayed one day before inoculation, read-out: control compared to the untreated check (efficacy from disease severity rating). The method, then:
Compounds were dissolved in 2% DMSO/Acetone and then diluted with water containing emulsifier to the desired test concentration. To test the preventive activity of compounds, healthy young soybean plants, raised in the greenhouse, were sprayed with the active compound solution at the stated application rates inside spray cabinets using hallowcone nozzles. One day after treatment, the plants were inoculated with a suspension containing 2.1×10^6 Phakopsora pachyrhizi spores. The inoculated plants were then kept in the greenhouse chamber at 25° C. temperature and 90% relative humidity for disease expression. A visual assessment of the compound's performance was carried out by rating the disease severity (0-100% scale) on treated plants on 3, 7, 10 and 15 days after application. Efficacy (% control) of the compounds was calculated by comparing the disease rating in the treatment with the one of the untreated control. The treated plants were also assessed for plant compatibility by recording symptoms like necrosis, chlorosis and stunting.
Turning to `O=C(Nc1ccc(Cc2noc(C(F)(F)F)n2)cc1)c1ccccc1` [Compound 2, N-(4-((5-(trifluoromethyl)-1,2,4-oxadiazol-3-yl)methyl)phenyl)benzamide], the pest or weed control at 500 ppm is over 70%.

Take `O=C(Nc1ccc(Cc2noc(C(F)(F)F)n2)cc1)c1ccccn1` [Compound 3, N-(4-((5-(trifluoromethyl)-1,2,4-oxadiazol-3-yl)methyl)phenyl)picolinamide]: the pest or weed control at 500 ppm is over 70%.

Regarding `O=C(Nc1ccc(Cc2noc(C(F)(F)F)n2)cc1)c1cccnc1` [Compound 4, N-(4-((5-(trifluoromethyl)-1,2,4-oxadiazol-3-yl)methyl)phenyl)nicotinamide], the pest or weed control at 500 ppm was over 70%.

In the case of `O=C(Nc1ccc(Cc2noc(C(F)(F)F)n2)cc1)c1ccncc1` [Compound 5, N-(4-((5-(trifluoromethyl)-1,2,4-oxadiazol-3-yl)methyl)phenyl)isonicotinamide], the pest or weed control at 500 ppm was over 70%.

For `O=C(Cc1ccccc1)Nc1ccc(Cc2noc(C(F)(F)F)n2)cc1` [Compound 6, 2-phenyl-N-(4-((5-(trifluoromethyl)-1,2,4-oxadiazol-3-yl)methyl)phenyl)acetamide], the pest or weed control at 500 ppm was over 70%.

`O=C(Nc1ccc(Cc2noc(C(F)(F)F)n2)cc1)c1ccc(C(F)(F)F)cc1` [Compound 8, 4-(trifluoromethyl)-N-(4-((5-(trifluoromethyl)-1,2,4-oxadiazol-3-yl)methyl)phenyl)benzamide]: the pest or weed control at 500 ppm is over 70%.

In the case of `O=C(Nc1ccc(Cc2noc(C(F)(F)F)n2)cc1)c1ccc(F)cc1` [Compound 9, 4-fluoro-N-(4-((5-(trifluoromethyl)-1,2,4-oxadiazol-3-yl)methyl)phenyl)benzamide], the pest or weed control at 500 ppm was over 70%.

On to `O=C(Nc1ccc(Cc2noc(C(F)(F)F)n2)cc1)c1ccc(Cl)cc1` [Compound 10, 4-chloro-N-(4-((5-(trifluoromethyl)-1,2,4-oxadiazol-3-yl)methyl)phenyl)benzamide], for which the pest or weed control at 500 ppm was over 70%.

Take `O=C(NCc1ccc(F)cc1)c1ccc(Cc2noc(C(F)(F)F)n2)cc1` [Compound 12, N-(4-fluorobenzyl)-4-((5-(trifluoromethyl)-1,2,4-oxadiazol-3-yl)methyl)benzamide]: the pest or weed control at 500 ppm was over 70%.

On to `O=C(c1ccc(Cc2noc(C(F)(F)F)n2)cc1)N1CCOCC1` [Compound 13, morpholino(4-((5-(trifluoromethyl)-1,2,4-oxadiazol-3-yl)methyl)phenyl)methanone], for which the pest or weed control at 500 ppm was over 70%.

Consider `COc1ccc(Cl)c(NC(=O)c2ccc(Cc3noc(C(F)(F)F)n3)cc2)c1` [Compound 18, N-(2-chloro-5-methoxyphenyl)-4-((5-(trifluoromethyl)-1,2,4-oxadiazol-3-yl)methyl)benzamide], for which the pest or weed control at 500 ppm was over 70%.

`O=C(Nc1ccc(C(=O)c2noc(C(F)(F)F)n2)cc1)c1ccncc1` [Compound 27, N-(4-(5-(trifluoromethyl)-1,2,4-oxadiazole-3-carbonyl)phenyl)isonicotinamide]: the pest or weed control at 500 ppm is over 70%.

`CC(C)(C)OC(=O)Nc1ccc(C(=O)c2noc(C(F)(F)F)n2)cc1` [Compound 29, tert-butyl (4-(5-(trifluoromethyl)-1,2,4-oxadiazole-3-carbonyl)phenyl)carbamate]: the pest or weed control at 500 ppm was over 70%.

`CC(C)(C)OC(=O)Nc1ccc(C(F)(F)c2noc(C(F)(F)F)n2)cc1` [Compound 30, tert-butyl (4-(difluoro(5-(trifluoromethyl)-1,2,4-oxadiazol-3-yl)methyl)phenyl)carbamate]: the pest or weed control at 500 ppm was over 70%.

As for `Cc1ccc(C(=O)Nc2ccc(C(F)(F)c3noc(C(F)(F)F)n3)cc2)cc1` [Compound 38, N-(4-(difluoro(5-(trifluoromethyl)-1,2,4-oxadiazol-3-yl)methyl)phenyl)-4-methylbenzamide], the pest or weed control at 500 ppm was over 70%.

As for `CNC(=O)c1ccc(Cc2noc(C(F)(F)F)n2)cc1` [Compound 40, N-methyl-4-((5-(trifluoromethyl)-1,2,4-oxadiazol-3-yl)methyl)benzamide], the pest or weed control at 500 ppm is over 70%.

Turning to `COCCNC(=O)c1ccc(Cc2noc(C(F)(F)F)n2)cc1` [Compound 42, N-(2-methoxyethyl)-4-((5-(trifluoromethyl)-1,2,4-oxadiazol-3-yl)methyl)benzamide], the pest or weed control at 500 ppm is over 70%.

`O=C(c1ccc(Cc2noc(C(F)(F)F)n2)cc1)N1CCCC1` [Compound 45, pyrrolidin-1-yl(4-((5-(trifluoromethyl)-1,2,4-oxadiazol-3-yl)methyl)phenyl)methanone]: the pest or weed control at 500 ppm is over 70%.

Take `COCCN(C)C(=O)c1ccc(Cc2noc(C(F)(F)F)n2)cc1` [Compound 46, N-(2-methoxyethyl)-N-methyl-4-((5-(trifluoromethyl)-1,2,4-oxadiazol-3-yl)methyl)benzamide]: the pest or weed control at 500 ppm is over 70%.

`O=C(NCC1CC1)c1ccc(Cc2noc(C(F)(F)F)n2)cc1` [Compound 47, N-(cyclopropylmethyl)-4-((5-(trifluoromethyl)-1,2,4-oxadiazol-3-yl)methyl)benzamide]: the pest or weed control at 500 ppm is over 70%.

With `CCN(C)C(=O)c1ccc(Cc2noc(C(F)(F)F)n2)cc1` [Compound 48, N-ethyl-N-methyl-4-((5-(trifluoromethyl)-1,2,4-oxadiazol-3-yl)methyl)benzamide], the pest or weed control at 500 ppm was over 70%.

`C=CCN(C)C(=O)c1ccc(Cc2noc(C(F)(F)F)n2)cc1` [Compound 49, N-allyl-N-methyl-4-((5-(trifluoromethyl)-1,2,4-oxadiazol-3-yl)methyl)benzamide]: the pest or weed control at 500 ppm was over 70%.

For the compound `C#CCNC(=O)c1ccc(Cc2noc(C(F)(F)F)n2)cc1` [Compound 50, N-(prop-2-yn-1-yl)-4-((5-(trifluoromethyl)-1,2,4-oxadiazol-3-yl)methyl)benzamide], the pest or weed control at 500 ppm was over 70%.

As for `Fc1ccc(NC(=S)c2ccc(Cc3noc(C(F)(F)F)n3)cc2)cc1` [Compound 67, N-(4-fluorophenyl)-4-((5-(trifluoromethyl)-1,2,4-oxadiazol-3-yl)methyl)benzothioamide], the pest or weed control at 500 ppm was over 70%.

For `O=S(=O)(Nc1ccc(Cc2noc(C(F)(F)F)n2)cc1)c1ccccc1` [Compound 68, N-(4-((5-(trifluoromethyl)-1,2,4-oxadiazol-3-yl)methyl)phenyl)benzenesulfonamide], the pest or weed control at 500 ppm was over 70%.

(Values after patent publication US20210387954A1, “OXADIAZOLES AS FUNGICIDES” (PI INDUSTRIES LIMITED, priority 2018, published 2021).)
